Measurements from ChEMBL document CHEMBL1201862, “PubChem BioAssay data set” (2004).
The source made the active and inactive calls.

Legend:
[1] = biological target: T1, Tyrosine-protein phosphatase non-receptor type 7 (Homo sapiens, UniProt P35236); assay: HePTP tyrosine phosphatase activity blockers – biochemical, absorbance, leukemia target, primary screen (AID 521); format: functional
T1 sequence (P35236 whole entry): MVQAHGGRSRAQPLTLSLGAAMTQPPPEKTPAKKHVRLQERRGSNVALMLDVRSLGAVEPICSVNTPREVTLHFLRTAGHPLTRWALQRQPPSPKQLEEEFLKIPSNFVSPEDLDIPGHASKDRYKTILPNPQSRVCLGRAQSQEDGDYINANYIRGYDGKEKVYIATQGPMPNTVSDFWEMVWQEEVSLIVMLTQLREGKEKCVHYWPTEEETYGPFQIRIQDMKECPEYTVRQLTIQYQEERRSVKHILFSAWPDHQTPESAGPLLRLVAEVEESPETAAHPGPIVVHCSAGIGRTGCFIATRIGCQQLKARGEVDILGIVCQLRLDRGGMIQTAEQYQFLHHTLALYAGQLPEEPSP

Bcl-2-like protein 10 = biological target: T2, Bcl-2-like protein 10 (Homo sapiens, UniProt Q9HD36); assay: Bcl-B/TR3 peptide binding disruption – biochemical, fluorescence polarization, FITC-TR3 peptide, selectivity assay for Bfl-1 inhibitor project, primary screen (AID 748);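 note: fluorescence polarization from a fluorescein-labelled TR3 peptide binding purified Bcl-B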
T2 sequence (Q9HD36 whole entry): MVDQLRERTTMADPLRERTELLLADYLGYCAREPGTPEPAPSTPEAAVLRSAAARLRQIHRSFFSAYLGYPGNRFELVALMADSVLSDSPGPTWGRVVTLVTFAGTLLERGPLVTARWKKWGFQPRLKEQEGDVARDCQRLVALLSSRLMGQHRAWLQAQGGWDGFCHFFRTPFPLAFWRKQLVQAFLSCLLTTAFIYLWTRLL

Bcl-2-related protein A1 = biological target: T3, Bcl-2-related protein A1 (Mus musculus, UniProt Q07440); assay: displacement of Bid BH3 peptide from Bfl-1 – biochemical, fluorescence polarization, FITC-Bid, mouse, primary screen (AID 432)
T3 sequence (Q07440 whole entry): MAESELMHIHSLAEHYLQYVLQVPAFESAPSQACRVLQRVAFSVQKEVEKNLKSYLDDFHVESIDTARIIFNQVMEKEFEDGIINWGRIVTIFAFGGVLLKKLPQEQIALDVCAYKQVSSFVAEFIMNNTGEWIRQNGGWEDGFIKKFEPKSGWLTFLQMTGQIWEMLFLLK

[2] = biological target: T4, Dual specificity protein phosphatase 6 (Rattus norvegicus, UniProt Q64346); assay: inhibition of rat DUSP6 enzyme activity – biochemical, in vitro, primary screen (AID 425)
T4 sequence (Q64346 whole entry): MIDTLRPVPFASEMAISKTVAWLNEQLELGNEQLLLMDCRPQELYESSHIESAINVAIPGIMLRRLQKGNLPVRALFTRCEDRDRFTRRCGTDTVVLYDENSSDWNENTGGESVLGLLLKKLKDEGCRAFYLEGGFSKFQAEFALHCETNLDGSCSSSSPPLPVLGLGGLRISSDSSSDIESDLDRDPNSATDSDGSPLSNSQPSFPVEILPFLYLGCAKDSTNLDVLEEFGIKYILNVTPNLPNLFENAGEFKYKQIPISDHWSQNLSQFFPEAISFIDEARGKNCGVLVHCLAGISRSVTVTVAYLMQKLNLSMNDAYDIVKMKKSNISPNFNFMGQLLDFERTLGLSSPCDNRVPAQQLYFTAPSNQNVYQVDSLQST

[3] = biological target: DNA dC->dU-editing enzyme APOBEC-3A (Homo sapiens, UniProt P31941); assay: Dose Response confirmation of small molecule APOBEC3A DNA Deaminase Inhibitors via a fluorescence-based single-stranded DNA deaminase assay. [Related pubchem assays (depositor defined):AID493011, AID493024]; format: functional
Chain of DNA dC->dU-editing enzyme APOBEC-3A (P31941 whole entry): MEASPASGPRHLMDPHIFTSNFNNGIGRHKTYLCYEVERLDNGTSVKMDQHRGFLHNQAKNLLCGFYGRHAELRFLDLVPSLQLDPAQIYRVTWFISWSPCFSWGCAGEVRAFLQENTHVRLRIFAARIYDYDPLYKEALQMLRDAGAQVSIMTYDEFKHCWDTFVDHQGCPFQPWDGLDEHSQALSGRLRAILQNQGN

[4] = biological target: DNA dC->dU-editing enzyme APOBEC-3G (Homo sapiens, UniProt Q9HC16); format: functional;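 note: Dose-response counterscreen measuring inhibition of APOBEC3G DNA deaminase activity, run while confirming APOBEC3A inhibitors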
Large T antigen = Large T antigen (Simian virus 40, UniProt P03070); format: functional, Betapolyomavirus macacae;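 note: Confirmatory-stage PubChem screen for compounds that inhibit SV40 T antigen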
Protein Tat = Protein Tat (Human immunodeficiency virus type 1 group M subtype B (isolate HXB2)(HIV-1), UniProt P04608); format: functional;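 note: tat binding to TAR RNA read out by fluorescence polarization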
[5] = luciferase reporter signal suppression in cells – H4 neuroglioma cells, luminescence, dose response (AID 1990); format: functional, cell-based
[6] = Luminescence Cell-Based Dose Response HTS to Identify Inhibitors of 5'UTR Stem-Loop Driven Prion Protein mRNA Translation in H4 Neuroglioblastoma Cells. [Related pubchem assays: 1827 (Project Summary), 1813 (Primary HTS)]; format: functional
Vero = assay: mammalian cell viability reduction – secondary assay, cytotoxicity control for West Nile virus antiviral project, dose response (AID 1650); format: functional; conditions: Chlorocebus sabaeus
[7] = alpha-synuclein stem-loop luciferase translation blockers – H4 neuroglioma cells, luminescence, confirmation (AID 1988); format: functional, cell-based
[8] = viability loss in Vero cells – cytotoxicity control for Vif-APOBEC3G degradation inhibitor project, dose response (AID 1117358); format: functional; conditions: Vero
[9] = biological target: Peroxisome proliferator-activated receptor gamma/Nuclear receptor corepressor 2 (Homo sapiens, UniProt P37231+Q9Y618); assay: Counterscreen for NR2E3 inverse agonists: TR-FRET-based biochemical high throughput dose response assay to identify inverse agonists of the interaction between peroxisome proliferator-activated receptor gamma (PPARg) and nuclear receptor co-repressor 2 (NCOR2).; format: functional
Chain of Peroxisome proliferator-activated receptor gamma/Nuclear receptor corepressor 2 (P37231 whole entry): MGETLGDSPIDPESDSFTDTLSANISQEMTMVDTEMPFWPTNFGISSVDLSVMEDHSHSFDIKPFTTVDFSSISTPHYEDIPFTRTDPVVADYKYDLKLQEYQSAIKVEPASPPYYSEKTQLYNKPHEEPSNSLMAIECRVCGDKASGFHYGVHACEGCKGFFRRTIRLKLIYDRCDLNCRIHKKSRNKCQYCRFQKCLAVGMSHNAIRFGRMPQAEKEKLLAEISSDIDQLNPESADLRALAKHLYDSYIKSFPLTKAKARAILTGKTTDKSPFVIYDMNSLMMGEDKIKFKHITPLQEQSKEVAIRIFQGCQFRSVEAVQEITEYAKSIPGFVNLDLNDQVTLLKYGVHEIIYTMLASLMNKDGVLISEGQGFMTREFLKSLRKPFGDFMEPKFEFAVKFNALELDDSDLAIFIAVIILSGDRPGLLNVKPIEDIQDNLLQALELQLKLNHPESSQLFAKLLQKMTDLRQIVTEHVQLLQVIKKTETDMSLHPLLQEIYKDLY
Chain of Peroxisome proliferator-activated receptor gamma/Nuclear receptor corepressor 2 (Q9Y618 whole entry): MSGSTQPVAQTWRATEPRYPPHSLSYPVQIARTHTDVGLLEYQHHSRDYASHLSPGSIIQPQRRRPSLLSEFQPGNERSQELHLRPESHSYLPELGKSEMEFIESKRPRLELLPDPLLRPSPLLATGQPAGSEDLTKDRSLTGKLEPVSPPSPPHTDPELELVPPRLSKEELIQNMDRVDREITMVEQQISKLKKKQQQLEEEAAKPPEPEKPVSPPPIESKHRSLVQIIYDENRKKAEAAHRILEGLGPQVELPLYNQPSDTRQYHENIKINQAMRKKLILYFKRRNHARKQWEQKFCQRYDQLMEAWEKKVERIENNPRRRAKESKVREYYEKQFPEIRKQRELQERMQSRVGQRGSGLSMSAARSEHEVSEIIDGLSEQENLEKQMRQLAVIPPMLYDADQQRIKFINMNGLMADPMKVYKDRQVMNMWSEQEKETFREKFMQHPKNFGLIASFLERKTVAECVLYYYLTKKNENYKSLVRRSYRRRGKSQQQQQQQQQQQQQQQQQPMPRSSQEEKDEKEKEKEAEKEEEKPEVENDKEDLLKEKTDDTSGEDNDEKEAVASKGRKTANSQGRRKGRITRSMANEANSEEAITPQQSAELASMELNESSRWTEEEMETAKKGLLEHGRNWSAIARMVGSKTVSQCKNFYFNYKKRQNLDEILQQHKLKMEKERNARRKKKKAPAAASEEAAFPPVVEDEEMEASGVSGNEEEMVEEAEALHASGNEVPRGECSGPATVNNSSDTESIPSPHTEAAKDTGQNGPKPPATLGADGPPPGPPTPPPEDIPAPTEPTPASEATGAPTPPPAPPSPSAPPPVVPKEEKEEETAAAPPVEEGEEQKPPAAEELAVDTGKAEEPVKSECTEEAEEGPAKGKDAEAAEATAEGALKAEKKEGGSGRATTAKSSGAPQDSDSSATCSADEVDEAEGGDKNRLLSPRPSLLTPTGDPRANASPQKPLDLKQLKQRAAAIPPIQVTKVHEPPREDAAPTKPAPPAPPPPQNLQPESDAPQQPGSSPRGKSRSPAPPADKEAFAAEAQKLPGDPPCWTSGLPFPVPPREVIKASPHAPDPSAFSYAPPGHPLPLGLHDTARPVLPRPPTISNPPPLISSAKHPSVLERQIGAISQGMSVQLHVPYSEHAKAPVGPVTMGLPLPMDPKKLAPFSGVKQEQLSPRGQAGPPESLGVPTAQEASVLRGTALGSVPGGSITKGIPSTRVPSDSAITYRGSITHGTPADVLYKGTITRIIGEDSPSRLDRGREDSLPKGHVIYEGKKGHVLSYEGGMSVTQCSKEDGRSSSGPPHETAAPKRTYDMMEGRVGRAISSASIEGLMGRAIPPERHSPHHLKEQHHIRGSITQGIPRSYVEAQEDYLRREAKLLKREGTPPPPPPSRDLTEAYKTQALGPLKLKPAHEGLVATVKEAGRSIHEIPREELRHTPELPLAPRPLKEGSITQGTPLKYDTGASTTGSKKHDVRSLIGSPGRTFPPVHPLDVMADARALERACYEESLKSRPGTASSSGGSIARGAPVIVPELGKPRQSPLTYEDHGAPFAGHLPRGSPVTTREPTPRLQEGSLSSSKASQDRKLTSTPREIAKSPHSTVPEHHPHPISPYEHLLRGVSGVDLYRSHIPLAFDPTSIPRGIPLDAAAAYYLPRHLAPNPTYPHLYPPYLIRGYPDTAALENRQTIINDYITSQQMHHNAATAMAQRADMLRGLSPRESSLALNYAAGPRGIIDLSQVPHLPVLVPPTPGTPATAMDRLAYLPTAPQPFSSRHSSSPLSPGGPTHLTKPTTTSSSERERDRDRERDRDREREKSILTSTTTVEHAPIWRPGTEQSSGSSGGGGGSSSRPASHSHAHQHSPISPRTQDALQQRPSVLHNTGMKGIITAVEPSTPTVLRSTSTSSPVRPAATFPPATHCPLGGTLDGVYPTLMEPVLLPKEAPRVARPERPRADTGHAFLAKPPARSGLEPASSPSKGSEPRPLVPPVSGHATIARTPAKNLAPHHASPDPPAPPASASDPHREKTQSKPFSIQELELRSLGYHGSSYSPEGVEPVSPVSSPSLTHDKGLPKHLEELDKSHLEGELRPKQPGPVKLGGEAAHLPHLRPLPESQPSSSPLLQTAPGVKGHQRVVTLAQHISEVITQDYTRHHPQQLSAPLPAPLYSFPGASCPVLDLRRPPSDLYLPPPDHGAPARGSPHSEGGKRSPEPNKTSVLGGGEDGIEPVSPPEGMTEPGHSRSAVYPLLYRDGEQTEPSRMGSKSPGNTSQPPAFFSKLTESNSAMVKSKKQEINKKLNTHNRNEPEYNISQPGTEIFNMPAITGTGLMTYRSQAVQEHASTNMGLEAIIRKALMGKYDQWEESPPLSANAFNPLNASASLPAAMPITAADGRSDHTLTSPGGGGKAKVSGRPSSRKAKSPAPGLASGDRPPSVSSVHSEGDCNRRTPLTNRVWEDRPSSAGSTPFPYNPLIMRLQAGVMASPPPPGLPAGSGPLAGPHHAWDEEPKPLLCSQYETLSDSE

[10] = biological target: Photoreceptor-specific nuclear receptor (Homo sapiens, UniProt Q9Y5X4); assay: ligands suppressing NR2E3 nuclear receptor activity – biochemical, TR-FRET, dose response (AID 463256); format: functional
Cytochrome P450 2C19 = Cytochrome P450 2C19 (Homo sapiens, UniProt P33261); assay: Cytochrome panel assay with activity outcomes. Panel member name: p450-cyp2c19 Compounds with AC50 equal or less than 10 uM are considered active; format: functional; conditions: read-out: AC50
Cytochrome P450 3A4 = Cytochrome P450 3A4 (Homo sapiens, UniProt P08684);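 note: CYP3A4 tested as one member of a cytochrome P450 panel screen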
Chain of Cytochrome P450 3A4 (P08684 whole entry): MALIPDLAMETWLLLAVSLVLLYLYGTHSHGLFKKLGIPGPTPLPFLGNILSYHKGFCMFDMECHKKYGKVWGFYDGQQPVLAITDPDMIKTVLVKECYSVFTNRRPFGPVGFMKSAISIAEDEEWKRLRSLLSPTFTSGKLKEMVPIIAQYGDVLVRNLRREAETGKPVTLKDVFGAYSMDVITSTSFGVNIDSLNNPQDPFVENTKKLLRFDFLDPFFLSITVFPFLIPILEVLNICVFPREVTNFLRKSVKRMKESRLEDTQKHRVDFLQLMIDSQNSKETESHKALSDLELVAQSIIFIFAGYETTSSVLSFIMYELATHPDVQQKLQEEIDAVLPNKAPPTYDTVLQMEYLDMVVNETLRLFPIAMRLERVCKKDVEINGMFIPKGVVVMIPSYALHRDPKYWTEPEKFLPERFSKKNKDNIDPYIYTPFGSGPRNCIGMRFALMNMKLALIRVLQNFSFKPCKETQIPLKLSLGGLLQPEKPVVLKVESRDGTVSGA

Cytochrome P450 2C9 = Cytochrome P450 2C9 (Homo sapiens, UniProt P11712)
Chain of Cytochrome P450 2C9 (P11712 whole entry): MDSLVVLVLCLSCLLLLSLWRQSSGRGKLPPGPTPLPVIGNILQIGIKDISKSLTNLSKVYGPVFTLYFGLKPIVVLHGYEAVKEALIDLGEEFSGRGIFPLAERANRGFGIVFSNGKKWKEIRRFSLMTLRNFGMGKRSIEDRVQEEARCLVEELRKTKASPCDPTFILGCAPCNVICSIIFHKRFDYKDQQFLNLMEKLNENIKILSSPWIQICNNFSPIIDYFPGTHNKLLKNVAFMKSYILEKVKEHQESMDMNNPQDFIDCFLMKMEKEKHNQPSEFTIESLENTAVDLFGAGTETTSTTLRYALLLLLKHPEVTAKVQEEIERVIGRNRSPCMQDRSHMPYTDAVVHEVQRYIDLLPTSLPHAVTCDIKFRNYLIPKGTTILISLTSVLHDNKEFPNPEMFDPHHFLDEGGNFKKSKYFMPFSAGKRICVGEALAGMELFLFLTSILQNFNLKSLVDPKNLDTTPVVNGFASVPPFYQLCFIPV

HEK293 [11] = assay: cells; conditions: Homo sapiens
HEK293 [12] = assay: cells; conditions: Homo sapiens; remark: listed apart in the source
[13] = biological target: T5, RNA-binding protein pos-1 (Caenorhabditis elegans, UniProt G5EF15); assay: disruptors of C. elegans POS-1 RNA interaction – biochemical, fluorescence polarization, dose response (AID 1964);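 note: purified POS-1 fused to maltose binding protein made in E. coli; potency of compounds blocking POS-1 binding to fluorescent RNA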
T5 sequence (G5EF15 whole entry): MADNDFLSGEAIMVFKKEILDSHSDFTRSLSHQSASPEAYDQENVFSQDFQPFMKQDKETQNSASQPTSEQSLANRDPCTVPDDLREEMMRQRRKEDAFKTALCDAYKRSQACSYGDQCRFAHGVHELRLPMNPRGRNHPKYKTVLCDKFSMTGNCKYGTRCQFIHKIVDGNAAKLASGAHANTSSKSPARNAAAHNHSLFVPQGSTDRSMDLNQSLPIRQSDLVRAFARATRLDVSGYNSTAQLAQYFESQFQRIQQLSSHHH

[14] = biological target: T6, Zinc finger protein mex-5 (Caenorhabditis elegans, UniProt Q9XUB2); assay: potency of MEX-5 RNA-binding blockers – biochemical, C. elegans, fluorescence polarization, dose response (AID 1960)
T6 sequence (Q9XUB2 whole entry): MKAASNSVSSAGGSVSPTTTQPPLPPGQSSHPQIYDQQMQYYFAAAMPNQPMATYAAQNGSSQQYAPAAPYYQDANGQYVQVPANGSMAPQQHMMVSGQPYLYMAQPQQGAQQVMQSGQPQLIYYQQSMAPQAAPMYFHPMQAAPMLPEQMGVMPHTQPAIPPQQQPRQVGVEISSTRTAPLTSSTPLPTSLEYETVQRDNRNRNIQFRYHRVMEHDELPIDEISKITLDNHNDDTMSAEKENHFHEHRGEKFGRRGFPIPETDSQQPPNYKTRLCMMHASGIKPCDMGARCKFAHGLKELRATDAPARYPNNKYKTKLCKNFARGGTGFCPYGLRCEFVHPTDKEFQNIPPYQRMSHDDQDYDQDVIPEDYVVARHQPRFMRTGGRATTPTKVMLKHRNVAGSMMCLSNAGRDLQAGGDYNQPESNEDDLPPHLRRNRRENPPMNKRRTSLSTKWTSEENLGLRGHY

Ephrin type-A receptor 4 = Ephrin type-A receptor 4 (Mus musculus, UniProt Q03137); assay: EphA4 ligand-binding antagonists – biochemical, colorimetric, mouse EphA4, primary screen (AID 689); format: functional
[15] = biological target: Voltage-dependent T-type calcium channel subunit alpha-1H (Homo sapiens, UniProt O95180); format: functional;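 note: channel activity triggered by adding a high calcium stimulation buffer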
[16] = biological target: Disintegrin and metalloproteinase domain-containing protein 17 (Homo sapiens, UniProt P78536); assay: exosite inhibitors of ADAM17, dose response, biochemical (AID 743260)
Chain of Disintegrin and metalloproteinase domain-containing protein 17 (P78536 whole entry, the tested form may be a part): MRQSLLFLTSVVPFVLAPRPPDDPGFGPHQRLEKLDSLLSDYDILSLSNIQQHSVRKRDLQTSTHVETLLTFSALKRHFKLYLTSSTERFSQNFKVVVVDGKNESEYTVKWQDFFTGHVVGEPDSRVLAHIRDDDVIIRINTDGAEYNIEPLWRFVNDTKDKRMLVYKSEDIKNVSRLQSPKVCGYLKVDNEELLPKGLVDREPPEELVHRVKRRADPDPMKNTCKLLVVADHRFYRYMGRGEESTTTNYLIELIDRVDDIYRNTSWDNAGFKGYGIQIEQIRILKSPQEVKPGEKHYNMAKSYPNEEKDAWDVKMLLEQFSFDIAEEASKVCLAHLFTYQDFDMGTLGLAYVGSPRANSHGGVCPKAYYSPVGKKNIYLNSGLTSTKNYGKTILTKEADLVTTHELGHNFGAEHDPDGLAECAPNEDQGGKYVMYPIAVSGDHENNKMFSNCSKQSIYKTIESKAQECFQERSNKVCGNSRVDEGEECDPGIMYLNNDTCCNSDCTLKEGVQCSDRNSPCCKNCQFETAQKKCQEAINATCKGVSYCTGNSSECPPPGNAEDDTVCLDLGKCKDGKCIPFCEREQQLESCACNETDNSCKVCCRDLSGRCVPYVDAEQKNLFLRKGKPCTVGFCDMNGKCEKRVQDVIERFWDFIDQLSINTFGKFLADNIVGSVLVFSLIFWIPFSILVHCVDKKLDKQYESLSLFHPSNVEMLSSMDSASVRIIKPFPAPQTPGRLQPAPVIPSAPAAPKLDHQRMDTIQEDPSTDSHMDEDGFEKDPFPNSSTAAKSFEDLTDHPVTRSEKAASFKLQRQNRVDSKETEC

[17] = inhibition of ADAM10 peptide cleavage – biochemical, FRET peptide substrate, recombinant human ADAM10, selectivity assay for ADAM17 exosite inhibitor project, dose response (AID 743259);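 note: ADAM10 enzyme cleaving a FRET peptide substrate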
[18] = P. falciparum Dd2 growth inhibitors, dose response, SYBR Green, cherry-picked samples (AID 1159567); format: functional, cell-based
[19] = toxicity to human hepatoma HepG2 cells – cell-based, cherry-picked samples, cytotoxicity control, dose response (AID 1159577); format: functional
[20] = growth inhibition of yeast DHODH-expressing 3D7 parasites – SYBR Green, dry powder samples, dose response (AID 1159570); format: functional, cell-based;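 note: parasite growth measured after 72 hours of compound exposure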
[21] = Dd2 malaria parasite growth inhibition potency – SYBR Green, dry powder samples, dose response (AID 1159566); format: functional, cell-based;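 note: potency for growth inhibition with lower SYBR green DNA signal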
[22] = Plasmodium falciparum Dd2 Sybr green parasite growth Measured in Cell-Based and Microorganism Combination System Using Plate Reader - 2153-01_Inhibitor_Dose_DryPowder_Activity_Set3.; format: functional
[23] = growth inhibition of PfATP4-mutant resistant parasites – NITD609-resistant line, SYBR Green, dry powder, dose response (AID 1159571); format: functional, cell-based;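 note: parasites synchronized at ring stage by sorbitol before testing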
[24] = toxicity to human HepG2 hepatoma cells – cell-based, plate reader, dry powder samples, cytotoxicity control, dose response (AID 1159569); format: functional;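 note: inhibitor potency with signal falling toward the positive control level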
[25] = Single fluorophore orthopox expression reporter, late gene expression Measured in Cell-Based and Microorganism Combination System Using Plate Reader - 2142-08_Inhibitor_Dose_DryPowder_Activity.; format: functional
[26] = lung carcinoma cell viability loss – CellTiter-Glo luminescence, dry powder, set 17, dose response (AID 1117284); format: functional, cell-based; conditions: A549
[27] = inhibitors of orthopox intermediate gene expression, dose response, cell-based, single fluorophore reporter, dry powder (AID 1117271); format: functional

## CCn1c(SCC(=O)O)nc2sc3c(c2c1=O)CCC3
[1]
  IC50: 1.29 µM (active)
Bcl-2-like protein 10
  IC50: 8.5 µM (active)
Bcl-2-related protein A1
  IC50: 14.5 µM (active)
[2]
  IC50: > 10 µM (not active)
[3]
  IC50: 17.5 µM (active)
[4]
  IC50: 40.8 µM (active)

## O=C(CN1CCN(S(=O)(=O)c2ccc(F)cc2)CC1)c1ccc(O)c(O)c1
Large T antigen
  IC50: 6.55 µM (active)
Protein Tat
  IC50: > 100 µM (active)

## O=C(Nc1ccc(O)c2c(=O)cc(-c3cccc(Cl)c3)oc12)c1cccc(Cl)c1
[5]
  EC50: > 120 µM (not active)
[6]
  EC50: > 120 µM (not active)
Vero
  CC50: 0.83 µM (active)
[7]
  EC50: 10.2 µM (active)

## N#Cc1nc(Cc2cccc3ccccc23)oc1NCc1ccc(F)cc1
[8]
  CC50: > 40 µM (active)

## CCOc1ccc(C(=O)Nc2ccc(NC(=O)c3ccco3)c(Cl)c2)cc1Br
[9]
  IC50: > 39.8 µM (not active)
[10]
  IC50: > 39.8 µM (not active)
Cytochrome P450 2C19
  AC50: 0.398 µM (inconclusive)
Cytochrome P450 3A4
  AC50: 22.4 µM (inconclusive)
Cytochrome P450 2C9
  AC50: 0.562 µM (inconclusive)
HEK293 [11]
  EC50: > 59.7 µM (inactive)
HEK293 [12]
  EC50: > 59.7 µM (inactive)

## Cc1ccc2cc(/C=C3\N=C(c4ccccc4)OC3=O)c(N3CCOCC3)nc2c1
[13]
  EC50: > 300 µM (not active)
[14]
  EC50: > 300 µM (inconclusive)
Ephrin type-A receptor 4
  IC50: 1.54 µM (active)
[15]
  EC50: 10.8 µM (active)

## CCc1ccccc1NC(=O)CN(C)Cc1nc(N)nc(Nc2ccccc2C)n1
[1]
  IC50: > 100 µM (not active)

## O=C(CN1CCN(S(=O)(=O)c2ccc(Cl)s2)CC1)NCc1ccc(Cl)cc1
[8]
  CC50: 15.1 µM (active)

## CC(C)(C)OC(=O)N1CCCC(C(=O)Nc2cccc(C(=O)NCCCCc3ccccc3)c2)C1 (stereo not drawn)
[16]
  IC50: > 69.5 µM (inactive)
[17]
  IC50: > 69.5 µM (inactive)

## COc1cccc(CN2C(=O)[C@@H]3Cc4c([nH]c5ccccc45)C(C)(C)N3C2=O)c1
[16]
  IC50: > 69.4 µM (inactive)
[17]
  IC50: > 69.4 µM (inactive)

## C[C@@H]1CN([C@@H](C)CO)C(=O)c2cccc(NC(=O)Nc3cccc4ccccc34)c2O[C@@H]1CN(C)Cc1ccc(C(=O)Nc2ccccc2N)cc1
[18]
  AC50: < 0.3 µM (active)
[19]
  AC50: 12.1 µM (active)

## C[C@H](CO)N1C[C@H](C)[C@H](CN(C)Cc2ccc(Oc3ccccc3)cc2)Oc2ccc(NC(=O)Nc3ccc(C(F)(F)F)cc3)cc2C1=O
[18]
  AC50: 9.62 µM (active)
[19]
  AC50: 7.87 µM (active)

## C/C=C/c1ccc([C@H]2[C@@H](C#N)N(C(=O)NC3CCCC3)[C@@H]2CO)cc1
[20]
  AC50: 15.4 µM (active)
[18]
  AC50: 1.02 µM (active)
[21]
  AC50: 0.4 µM (active)
[22]
  AC50: 0.719 µM (active)
[23]
  AC50: 0.626 µM (active)

## CO[C@@H]1CN(C)C(=O)c2ccc(NC(=O)C3CC3)cc2OC[C@@H](C)N(Cc2cccc(F)c2)C[C@H]1C
[20]
  AC50: 6.86 µM (active)
[24]
  AC50: > 100 µM (inactive)
[18]
  AC50: 2.98 µM (active)
[21]
  AC50: 0.664 µM (active)
[22]
  AC50: 4.29 µM (active)
[23]
  AC50: 3.64 µM (active)

## C[C@@H](O)C#Cc1ccc2c(c1)O[C@@H](CN(C)Cc1ccc(-c3ccc(Cl)cc3)cc1)[C@@H](C)CN([C@@H](C)CO)S2(=O)=O
[25]
  AC50: 1.26 µM (active)
[26]
  AC50: 33.4 µM (active)
[27]
  AC50: 1.29 µM (active)
